According to ChEMBL document CHEMBL1201862, “PubChem BioAssay data set” (2004):
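Briefly, cells in 96-well plates were exposed to five compound concentrations for 48 h, and endpoints were estimated by linear interpolation. The concentration for 50% growth inhibition is given as GI50.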 The source made the active and inactive calls. Rule as the data show it: active = GI50 up to about 1.1 µM and inactive = higher.

Assays:
Test in all cases: NCI-60 cell line screen, 48 h
786-0 = system: 786-0
A549 = system: A549
ACHN = system: ACHN
CAKI-1 = system: CAKI-1
COLO 205 = system: COLO 205
DMS-114 = system: DMS-114
DMS-273 = system: DMS-273
EKVX = system: EKVX
HCC 2998 = system: HCC 2998
HCT-116 = system: HCT-116
HL-60 = system: HL-60
HOP-18 = system: HOP-18
HOP-62 = system: HOP-62
HOP-92 = system: HOP-92
HT-29 = system: HT-29
KM-20L2 = system: KM-20L2
KM12 = system: KM12
LOX IMVI = system: LOX IMVI
LXFL 529 = system: LXFL 529
M14 = system: M14
M19-MEL = system: M19-MEL
Malme-3M = system: Malme-3M
NCI-H226 = system: NCI-H226
NCI-H23 = system: NCI-H23
NCI-H460 = system: NCI-H460
NCI-H522 = system: NCI-H522
OVCAR-4 = system: OVCAR-4
OVCAR-5 = system: OVCAR-5
OVCAR-8 = system: OVCAR-8
RXF 393 = system: RXF 393
SF-268 = system: SF-268
SF-295 = system: SF-295
SF-539 = system: SF-539
SK-MEL-28 = system: SK-MEL-28
SK-MEL-2 = system: SK-MEL-2
SN12C = system: SN12C
SNB-19 = system: SNB-19
SNB-75 = system: SNB-75
SNB-78 = system: SNB-78
SW-620 = system: SW-620
TK-10 = system: TK-10
U-251 = system: U-251
UACC-257 = system: UACC-257
UO-31 = system: UO-31
XF498 = system: XF498
A498 = system: A498
CCRF-CEM = system: CCRF-CEM
DLD-1 = system: DLD-1
HCT-15 = system: HCT-15
IGROV-1 = system: IGROV-1
K562 = system: K562
MOLT-4 = system: MOLT-4
RPMI-8226 = system: RPMI-8226
SK-MEL-5 = system: SK-MEL-5
SK-OV-3 = system: SK-OV-3
SR = system: SR
UACC-62 = system: UACC-62
OVCAR-3 = system: OVCAR-3

CCc1cc(C)cc2[n+]1CC=C2.[O-][Cl+3]([O-])([O-])[O-]
GI50 (786-0): 27.5 µM (inactive)
GI50 (A549): 24.6 µM (inactive)
GI50 (ACHN): 10.4 µM (inactive)
GI50 (CAKI-1): 28.2 µM (inactive)
GI50 (COLO 205): 21.9 µM (inactive)
GI50 (DMS-114): 10 µM (inactive)
GI50 (DMS-273): 0.593 µM (active)
GI50 (EKVX): 25.4 µM (inactive)
GI50 (HCC 2998): 43.6 µM (inactive)
GI50 (HCT-116): 18.2 µM (inactive)
GI50 (HL-60): 0.125 µM (active)
GI50 (HOP-18): 0.0676 µM (active)
GI50 (HOP-62): 18.7 µM (inactive)
GI50 (HOP-92): 11.6 µM (inactive)
GI50 (HT-29): 19.4 µM (inactive)
GI50 (KM-20L2): 21.5 µM (inactive)
GI50 (KM12): 32.9 µM (inactive)
GI50 (LOX IMVI): 32.7 µM (inactive)
GI50 (LXFL 529): 4.17 µM (inactive)
GI50 (M14): 22.3 µM (inactive)
GI50 (M19-MEL): 13.8 µM (inactive)
GI50 (Malme-3M): 15.9 µM (inactive)
GI50 (NCI-H226): 15.7 µM (inactive)
GI50 (NCI-H23): 13.9 µM (inactive)
GI50 (NCI-H460): 27.3 µM (inactive)
GI50 (NCI-H522): 13.1 µM (inactive)
GI50 (OVCAR-4): 34.1 µM (inactive)
GI50 (OVCAR-5): 15.5 µM (inactive)
GI50 (OVCAR-8): 3.97 µM (inactive)
GI50 (RXF 393): > 100 µM (inactive)
GI50 (SF-268): 32.5 µM (inactive)
GI50 (SF-295): 31.6 µM (inactive)
GI50 (SF-539): 26.7 µM (inactive)
GI50 (SK-MEL-28): 27.2 µM (inactive)
GI50 (SK-MEL-2): 15.6 µM (inactive)
GI50 (SN12C): 22.2 µM (inactive)
GI50 (SNB-19): 28.6 µM (inactive)
GI50 (SNB-75): 22.9 µM (inactive)
GI50 (SNB-78): 33.9 µM (inactive)
GI50 (SW-620): 7.33 µM (inactive)
GI50 (TK-10): 44.1 µM (inactive)
GI50 (U-251): 39.5 µM (inactive)
GI50 (UACC-257): 3.55 µM (inactive)
GI50 (UO-31): 16.9 µM (inactive)
GI50 (XF498): 2.56 µM (inactive)

COC(=O)[C@@]12OC[C@]34C([C@@H](O)C1O)[C@@]1(C)CC(=O)C(O)=C(C)C1C[C@H]3OC(=O)[C@H](OC(=O)CC(C)C(F)(F)F)[C@H]42 (stereo not given in full)
GI50 (786-0): 0.0646 µM (active)
GI50 (A498): 0.0214 µM (active)
GI50 (A549): 0.0265 µM (active)
GI50 (ACHN): 0.0231 µM (active)
GI50 (CAKI-1): 0.056 µM (active)
GI50 (CCRF-CEM): 0.012 µM (active)
GI50 (COLO 205): 0.101 µM (active)
GI50 (DLD-1): 0.0877 µM (active)
GI50 (DMS-114): 0.00948 µM (active)
GI50 (DMS-273): 0.00693 µM (active)
GI50 (EKVX): 0.128 µM (active)
GI50 (HCC 2998): 0.0105 µM (active)
GI50 (HCT-116): 0.0101 µM (active)
GI50 (HCT-15): 0.166 µM
GI50 (HL-60): 0.00375 µM (active)
GI50 (HOP-18): 0.308 µM (active)
GI50 (HOP-62): 0.0989 µM (active)
GI50 (HOP-92): 0.00953 µM (active)
GI50 (HT-29): 0.0133 µM (active)
GI50 (IGROV-1): 0.0168 µM (active)
GI50 (K562): 0.0157 µM (active)
GI50 (KM-20L2): 0.0195 µM (active)
GI50 (KM12): 0.0324 µM (active)
GI50 (LXFL 529): 0.00731 µM (active)
GI50 (M14): 0.0347 µM (active)
GI50 (M19-MEL): 0.0164 µM (active)
GI50 (MOLT-4): 0.0047 µM (active)
GI50 (Malme-3M): 0.0101 µM (active)
GI50 (NCI-H226): 0.0108 µM (active)
GI50 (NCI-H23): 0.0126 µM (active)
GI50 (NCI-H460): 0.00542 µM (active)
GI50 (NCI-H522): 0.00891 µM (active)
GI50 (OVCAR-4): 0.0676 µM (active)
GI50 (OVCAR-5): 0.146 µM (active)
GI50 (OVCAR-8): 0.0574 µM (active)
GI50 (RPMI-8226): 0.0116 µM (active)
GI50 (RXF 393): 0.0912 µM (active)
GI50 (SF-268): 0.0869 µM (active)
GI50 (SF-295): 0.0445 µM (active)
GI50 (SF-539): 0.0105 µM (active)
GI50 (SK-MEL-28): 0.0121 µM (active)
GI50 (SK-MEL-2): 0.0771 µM (active)
GI50 (SK-MEL-5): 0.0125 µM (active)
GI50 (SK-OV-3): 0.0514 µM (active)
GI50 (SN12C): 0.145 µM (active)
GI50 (SNB-19): 0.00802 µM (active)
GI50 (SNB-75): 0.0445 µM (active)
GI50 (SNB-78): 0.206 µM (active)
GI50 (SR): 0.00429 µM (active)
GI50 (SW-620): 0.022 µM (active)
GI50 (TK-10): 0.0662 µM (active)
GI50 (U-251): 0.0205 µM (active)
GI50 (UACC-257): 0.0759 µM (active)
GI50 (UACC-62): 0.00748 µM (active)
GI50 (UO-31): 0.149 µM (active)
GI50 (XF498): 0.00522 µM (active)

[N-]=[N+]=NC1C2CC3C4CC5CC3[C@H](C2)C(C5)C41 (stereo not given in full)
GI50 (786-0): > 100 µM (inactive)
GI50 (A498): > 100 µM (inactive)
GI50 (A549): > 100 µM (inactive)
GI50 (ACHN): > 100 µM (inactive)
GI50 (CAKI-1): > 100 µM (inactive)
GI50 (CCRF-CEM): > 100 µM (inactive)
GI50 (COLO 205): > 100 µM (inactive)
GI50 (DLD-1): > 100 µM (inactive)
GI50 (DMS-114): > 100 µM (inactive)
GI50 (DMS-273): > 100 µM (inactive)
GI50 (EKVX): > 100 µM (inactive)
GI50 (HCC 2998): > 100 µM (inactive)
GI50 (HCT-116): > 100 µM (inactive)
GI50 (HOP-18): 17.1 µM (inactive)
GI50 (HOP-62): > 100 µM (inactive)
GI50 (HOP-92): > 100 µM (inactive)
GI50 (HT-29): > 100 µM (inactive)
GI50 (IGROV-1): > 100 µM (inactive)
GI50 (K562): > 100 µM (inactive)
GI50 (KM12): > 100 µM (inactive)
GI50 (LOX IMVI): > 100 µM (inactive)
GI50 (LXFL 529): > 100 µM (inactive)
GI50 (M14): > 100 µM (inactive)
GI50 (M19-MEL): > 100 µM (inactive)
GI50 (MOLT-4): > 100 µM (inactive)
GI50 (Malme-3M): > 100 µM (inactive)
GI50 (NCI-H226): 75.3 µM (inactive)
GI50 (NCI-H23): > 100 µM (inactive)
GI50 (NCI-H460): > 100 µM (inactive)
GI50 (NCI-H522): > 100 µM (inactive)
GI50 (OVCAR-3): > 100 µM (inactive)
GI50 (OVCAR-4): > 100 µM (inactive)
GI50 (OVCAR-5): > 100 µM (inactive)
GI50 (OVCAR-8): > 100 µM (inactive)
GI50 (RPMI-8226): > 100 µM (inactive)
GI50 (RXF 393): > 100 µM (inactive)
GI50 (SF-268): > 100 µM (inactive)
GI50 (SF-295): > 100 µM (inactive)
GI50 (SF-539): > 100 µM (inactive)
GI50 (SK-MEL-28): > 100 µM (inactive)
GI50 (SK-MEL-2): > 100 µM (inactive)
GI50 (SK-MEL-5): > 100 µM (inactive)
GI50 (SK-OV-3): > 100 µM (inactive)
GI50 (SN12C): > 100 µM (inactive)
GI50 (SNB-19): > 100 µM (inactive)
GI50 (SNB-75): > 100 µM (inactive)
GI50 (SR): > 100 µM (inactive)
GI50 (SW-620): > 100 µM (inactive)
GI50 (TK-10): > 100 µM (inactive)
GI50 (U-251): > 100 µM (inactive)
GI50 (UACC-257): > 100 µM (inactive)
GI50 (UACC-62): > 100 µM (inactive)
GI50 (UO-31): > 100 µM (inactive)
GI50 (XF498): > 100 µM (inactive)
